From publication PMC11062922 (Nature Chemical Biology, 2023)

Columns and labels:
MERTK = assay: Kinobeads competition binding: MERTK; set-up: species or system human; details: target MERTK
EPHB1 = target: T1, EPHB1 (Homo sapiens, UniProt P54762); assay: Kinobeads competition binding: EPHB1; details: target EPHB1
T1 construct: endogenous in cells
T1 sequence (P54762 18-984): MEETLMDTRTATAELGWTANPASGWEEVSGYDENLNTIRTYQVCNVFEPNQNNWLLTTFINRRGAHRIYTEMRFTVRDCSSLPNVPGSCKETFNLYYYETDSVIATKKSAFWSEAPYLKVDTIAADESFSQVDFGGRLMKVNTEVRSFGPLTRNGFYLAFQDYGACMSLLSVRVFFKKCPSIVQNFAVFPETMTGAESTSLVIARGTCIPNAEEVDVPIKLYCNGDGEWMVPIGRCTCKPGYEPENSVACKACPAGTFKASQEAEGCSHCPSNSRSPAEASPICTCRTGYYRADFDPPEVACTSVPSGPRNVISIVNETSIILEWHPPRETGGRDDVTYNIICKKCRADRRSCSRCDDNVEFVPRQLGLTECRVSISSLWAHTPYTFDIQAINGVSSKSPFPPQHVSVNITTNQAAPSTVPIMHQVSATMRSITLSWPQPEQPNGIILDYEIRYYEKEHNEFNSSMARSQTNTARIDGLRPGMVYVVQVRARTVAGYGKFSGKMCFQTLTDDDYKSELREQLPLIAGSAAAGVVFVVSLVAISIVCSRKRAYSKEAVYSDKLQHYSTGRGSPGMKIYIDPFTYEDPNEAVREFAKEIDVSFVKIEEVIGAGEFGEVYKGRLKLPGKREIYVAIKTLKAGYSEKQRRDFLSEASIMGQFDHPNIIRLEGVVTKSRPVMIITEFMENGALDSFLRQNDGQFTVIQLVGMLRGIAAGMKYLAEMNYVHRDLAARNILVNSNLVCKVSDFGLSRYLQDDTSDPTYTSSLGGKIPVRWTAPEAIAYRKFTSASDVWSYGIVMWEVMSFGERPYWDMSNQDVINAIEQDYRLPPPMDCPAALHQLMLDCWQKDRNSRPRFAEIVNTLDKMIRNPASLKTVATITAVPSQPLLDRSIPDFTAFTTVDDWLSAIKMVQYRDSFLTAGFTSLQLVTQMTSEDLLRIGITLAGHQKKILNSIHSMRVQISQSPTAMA
Text: Supplement 41589_2023_1459_MOESM4_ESM.xlsx, sheet "CATDS matrix" | column: EPHB1

MET = target: T2, MET (Homo sapiens, UniProt P08581); assay: Kinobeads two-dose competition binding: MET; details: target MET
T2 construct: endogenous in cells
T2 sequence (P08581 25-1390): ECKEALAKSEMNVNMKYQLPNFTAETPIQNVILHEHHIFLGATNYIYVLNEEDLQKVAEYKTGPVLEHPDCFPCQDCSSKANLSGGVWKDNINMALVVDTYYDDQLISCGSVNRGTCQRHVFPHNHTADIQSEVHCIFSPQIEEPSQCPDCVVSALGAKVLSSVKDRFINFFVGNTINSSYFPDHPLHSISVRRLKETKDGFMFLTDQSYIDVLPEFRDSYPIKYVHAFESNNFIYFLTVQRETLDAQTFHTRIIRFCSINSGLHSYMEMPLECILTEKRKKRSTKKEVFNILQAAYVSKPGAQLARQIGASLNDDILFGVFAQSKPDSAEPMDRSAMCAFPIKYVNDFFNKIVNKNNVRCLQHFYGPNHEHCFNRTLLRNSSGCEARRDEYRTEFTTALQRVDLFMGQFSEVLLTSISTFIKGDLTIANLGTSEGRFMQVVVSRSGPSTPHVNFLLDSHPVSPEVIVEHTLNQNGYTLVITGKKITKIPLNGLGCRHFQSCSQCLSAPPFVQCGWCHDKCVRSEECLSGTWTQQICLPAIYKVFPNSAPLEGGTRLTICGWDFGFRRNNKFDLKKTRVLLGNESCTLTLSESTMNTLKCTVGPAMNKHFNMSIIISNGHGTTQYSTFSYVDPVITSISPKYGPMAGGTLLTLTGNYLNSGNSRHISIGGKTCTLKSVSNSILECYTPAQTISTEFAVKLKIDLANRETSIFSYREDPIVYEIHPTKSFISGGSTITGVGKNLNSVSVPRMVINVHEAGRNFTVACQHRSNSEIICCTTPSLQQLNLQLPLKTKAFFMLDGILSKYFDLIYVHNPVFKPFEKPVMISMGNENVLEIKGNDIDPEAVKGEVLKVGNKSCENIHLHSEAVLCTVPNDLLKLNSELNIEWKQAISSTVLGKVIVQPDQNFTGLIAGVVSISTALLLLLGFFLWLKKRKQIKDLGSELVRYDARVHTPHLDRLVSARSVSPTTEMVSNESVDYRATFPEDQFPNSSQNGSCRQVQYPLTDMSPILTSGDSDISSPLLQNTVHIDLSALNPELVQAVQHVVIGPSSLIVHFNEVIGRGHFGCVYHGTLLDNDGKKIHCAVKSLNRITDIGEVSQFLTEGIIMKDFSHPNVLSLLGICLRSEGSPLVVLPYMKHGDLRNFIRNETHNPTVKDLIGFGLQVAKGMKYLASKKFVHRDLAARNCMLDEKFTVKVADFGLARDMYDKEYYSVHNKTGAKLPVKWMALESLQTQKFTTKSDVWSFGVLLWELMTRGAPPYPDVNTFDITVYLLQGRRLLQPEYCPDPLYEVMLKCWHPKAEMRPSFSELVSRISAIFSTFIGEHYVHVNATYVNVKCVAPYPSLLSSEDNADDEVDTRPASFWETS

[1] = tested on: phosphorylation sites in RKO cells; assay: Drug-perturbed phosphoproteome analysis in RKO cells; assay type: cell-based, human; details: RKO cells, 1 µM for 1 hour
Text: To be able to measure PKN3 activity in cells, bona fide substrates of the kinase would be needed but no such substrate has been conclusively validated yet. In search for such candidates, we compared the phosphoproteomes of RKO cells (human colorectal cancer cells expressing high PKN3 levels according to ProteomicsDB[53]) in response to the same three compounds (that only share PKN3 as a target), as well as THZ1 (a covalent inhibitor for which PKN3 is a reported off-target[51]) and in response to siRNA-mediated knockdown of PKN3 (Extended Data Fig. 9a,b). […] The respective numbers were far smaller for GSK949675A, GSK902056A (all four drugs used at 1 µM for 1 hour) or the siRNA experiment (48 h of knockdown; Fig. 5d, Extended Data Fig. 9d and Supplementary Table 5). Successful PKN3 knockdown (89 and 92% for 1 and 3 nM siRNA, respectively) was confirmed by parallel reaction monitoring (a quantitative mass spectrometry-based protein expression assay; Extended Data Fig. 10a).
For global phosphoproteomic analysis of PKN3 inhibitors, RKO cells were treated with 1 µM GSK949675A, THZ1, GSK902056A, SB-476429A or DMSO for 1 h in four biological replicates or PKN3 were knocked down as described. After treatment, cells were washed twice with PBS and lyzed by adding 300 µl of lysis buffer (40 mM Tris-HCl pH 7.6, 8 M Urea, EDTA-free protease inhibitor complete mini and phosphatase inhibitor cocktail). Lysates were sonicated (ten cycles, 30 s on, 30 s pause, at 4 °C) and subsequently cleared by centrifugation for 20 min at 21,000g at 4 °C. Protein concentration was determined by Bradford assay and 300 µg protein per condition was digested. After reduction with 10 mM DTT and alkylation of cysteine residues with 50 mM chloroacetamide, the Urea concentration was reduced to 1.5 M by adding […] of 40 mM Tris/HCl pH 7.6. Trypsin was added to a protease-to-protein ratio of 1:50 and digestion was performed over night at 37 °C and 700 r.p.m. on a thermoshaker. Samples were cooled down to room temperature and acidified to a pH < 3 with 0.5% trifluoroacetic acid (TFA) and desalted using 50 mg SepPak columns (Waters; wash solvent 0.07% TFA in deionized water; elution solvent 0.07% TFA, 50% ACN). Subsequently, samples were frozen at −80 °C and dried by vacuum centrifugation. Peptide concentrations were determined by NanoDrop 2000 spectrophotometer and peptide amounts were adjusted. Dried peptides were labeled with TMT6plex as published previously. […] Phosphopeptides were enriched using column based Fe-IMAC as described previously. Subsequently, phosphopeptides were separated into six fractions using high pH reversed-phase stage tips as described before. Samples were dried by vacuum centrifugation.
Nanoflow LC–MS/MS measurement of TMT-labeled phosphopeptides was performed using a Dionex Ultimate3000 nano HPLC coupled online to an Orbitrap Fusion Lumos Tribride (Thermo Fisher Scientific) mass spectrometer. Peptides were delivered to a trap column (75 μm × 2 cm, packed in house with 5 μm C18 resin; Reprosil-Pur AQ, Dr. Maisch) and washed for 10 min with 0.1% FA at a flow rate of 5 μl min^−1. […] MS1 spectra were recorded in the Orbitrap from 360 to 1,300 m/z at a resolution of 60,000 using an AGC target value of 4 × 10^5 charges and a maximum injection time of 20 ms. MS2 spectra were recorded in the Orbitrap at 15,000 resolution after HCD fragmentation using 35% NCE, an AGC target value of 5 × 10^4, maximum injection time of 22 ms and an isolation width of 0.7 m/z. The first mass was fixed to 100 m/z. The number of MS2 spectra was limited by a top ten method. For TMT quantification, an additional MS3 spectrum was acquired in the Orbitrap over a scan range of 100–1,000 m/z at 15,000 resolution (AGC of 1 × 10^5, maximum injection time of 50 ms). For this, fragment ions were selected by multi-notch isolation in the Quadrupole, allowing a maximum of ten notches and subsequently fragmentation by HCD at 55% NCE. Dynamic exclusion was set to 90 s. […]

Q: For `CCc1cc2c(cc1N1CCC(N3CCOCC3)CC1)C(C)(C)c1[nH]c3cc(C#N)ccc3c1C2=O` [Alectinib], which CATDS (MERTK) is on record?
A: 0

Q: And the CATDS (EPHB1)?
A: 0

Q: What about the CATDS (MET) of the same molecule?
A: 0

Q: How did the CATDS (EPHB1) turn out when `CN(C)C/C=C/C(=O)Nc1cc2c(Nc3ccc(F)c(Cl)c3)ncnc2cc1O[C@H]1CCOC1` [Afatinib] was run?
A: 0

Q: And the CATDS (MET)?
A: 0

Q: `NCc1ccc(-c2nc(-c3ccncc3)c(-c3ccc(Cl)c(O)c3)[nH]2)cc1` [SB-476429-A] was tested. Which “PKN3 activation loop p sites (S544 and T550)” value [1] did it give?
A: substantial reduction

Q: What about the “number of perturbed phosphorylation sites” value (from here on “number”) [1] of the same molecule?
A: a large number of p sites

Q: What does the source list for `Nc1ncnc2[nH]c(-c3ccccc3)nc12` [AH5015_KCGS]?
A: CATDS (MERTK): 0; CATDS (EPHB1): 0; CATDS (MET): 0

Q: `CCN1CCN(Cc2ccc(Nc3ncc(F)c(-c4cc(F)c5nc(C)n(C(C)C)c5c4)n3)nc2)CC1` [Abemaciclib] was tested. Which CATDS (MERTK) did it give?
A: 0

Q: What about the CATDS (EPHB1) of the same molecule?
A: 0

Q: And the CATDS (MET)?
A: 0

Q: Which “number” value [1] does the source give for `CCn1c(-c2nonc2N)nc2c(C#CC(C)(C)O)nc(OCCN)cc21` [GSK902056A] here?
A: far smaller

Q: For `N#CC1(c2ccc(NC(=O)c3cccnc3NCc3ccncc3)cc2)CCCC1` [Apatinib], which CATDS (MERTK) is on record?
A: 0

Q: What about the CATDS (EPHB1) of the same molecule?
A: 0

Q: And the CATDS (MET)?
A: 0

Q: For `CCn1c(-c2nonc2N)nc2c(C#CC(C)(C)O)nc(OCCNC)cc21` [GSK949675A], which “number” value [1] is on record?
A: far smaller
